# Results taken from the supplement of paper PMC10307832.
# Legend:
# Test in all cases: relative viability (nuclei count vs DMSO), 5 days (fraction); higher = more cells survive
# [1] = tested on: LCLC-97TM1
# How it was run: (§1)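 Lung cancer cell lines, seeded in 1536-well plates, were treated the following day by pin tool with a single drug or with five library-drug doses (not always all listed) in √10 steps on top of a fixed anchor-drug dose. Cells were fixed and nuclei stained in one step after 5 days, and nuclei were counted. Relative viability is the nuclei count for treated wells divided by that for vehicle wells, reported as medians of duplicate plates.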
# [2] = tested on: RERF-LC-KJ
# How it was run: as §1
# [3] = tested on: PC-14
# How it was run: as §1
# [4] = tested on: NCI-H1650
# How it was run: as §1
# [5] = tested on: HCC-15
# How it was run: as §1
# [6] = tested on: NCI-H322M
# How it was run: as §1
# [7] = tested on: NCI-H1355
# How it was run: as §1
# [8] = tested on: NCI-H2405
# How it was run: as §1
# [9] = tested on: LK-2
# How it was run: as §1
# [10] = tested on: NCI-H2228
# How it was run: as §1
# [11] = tested on: CAL-12T
# How it was run: as §1
# [12] = tested on: HCC-827
# How it was run: as §1
# [13] = tested on: NCI-H1755
# How it was run: as §1
# [14] = tested on: NCI-H1734
# How it was run: as §1
# [15] = tested on: EKVX
# How it was run: as §1
# [16] = tested on: NCI-H520
# How it was run: as §1
# [17] = tested on: PC-3 [JPC-3]
# How it was run: as §1
# [18] = tested on: H3255
# How it was run: as §1
# [19] = tested on: NCI-H1975
# How it was run: as §1
structure (smiles),measurement,setting,value
COc1nc(C)cnc1NS(=O)(=O)c1cccnc1-c1ccc(-c2nnco2)cc1 [Zibotentan] + CC1(C)CCC(c2ccc(Cl)cc2)=C(CN2CCN(c3ccc(C(=O)NS(=O)(=O)c4ccc(N[C@H](CCN5CCOCC5)CSc5ccccc5)c(S(=O)(=O)C(F)(F)F)c4)cc3)CC2)C1 [Navitoclax] (partner 0.5 µM),relative viability,[1]; first compound 0.08 µM,0.365
same,relative viability,[1]; first compound 0.253 µM,0.402
same,relative viability,[1]; first compound 0.8 µM,0.403
same,relative viability,[1]; first compound 2.53 µM,0.447
same,relative viability,[2]; first compound 0.08 µM,0.996
same,relative viability,[2]; first compound 0.253 µM,1.2
same,relative viability,[2]; first compound 0.8 µM,0.887
same,relative viability,[2]; first compound 2.53 µM,0.976
same,relative viability,[3]; first compound 0.08 µM,1.01
same,relative viability,[3]; first compound 0.253 µM,0.983
same,relative viability,[3]; first compound 0.8 µM,0.987
same,relative viability,[3]; first compound 2.53 µM,1.03
same,relative viability,[4]; first compound 0.08 µM,1.26
same,relative viability,[4]; first compound 0.8 µM,1.36
same,relative viability,[4]; first compound 2.53 µM,1.09
same,relative viability,[5]; first compound 0.08 µM,0.648
same,relative viability,[5]; first compound 0.253 µM,0.656
same,relative viability,[5]; first compound 0.8 µM,0.765
same,relative viability,[5]; first compound 2.53 µM,0.698
same,relative viability,[6]; first compound 0.08 µM,1.12
same,relative viability,[6]; first compound 0.253 µM,1.18
same,relative viability,[6]; first compound 0.8 µM,1.23
same,relative viability,[6]; first compound 2.53 µM,1.3
same,relative viability,[7]; first compound 0.08 µM,0.991
same,relative viability,[7]; first compound 0.253 µM,0.968
same,relative viability,[7]; first compound 0.8 µM,0.928
same,relative viability,[7]; first compound 2.53 µM,1.1
same,relative viability,[8]; first compound 0.08 µM,0.904
same,relative viability,[8]; first compound 0.253 µM,0.725
same,relative viability,[8]; first compound 0.8 µM,0.921
same,relative viability,[8]; first compound 2.53 µM,1.01
same,relative viability,[9]; first compound 0.08 µM,1.1
same,relative viability,[9]; first compound 0.253 µM,0.807
same,relative viability,[9]; first compound 0.8 µM,0.806
same,relative viability,[9]; first compound 2.53 µM,0.828
same,relative viability,[10]; first compound 0.08 µM,0.942
same,relative viability,[10]; first compound 0.253 µM,0.85
same,relative viability,[10]; first compound 0.8 µM,0.685
same,relative viability,[10]; first compound 2.53 µM,1.44
same,relative viability,[11]; first compound 0.08 µM,1.27
same,relative viability,[11]; first compound 0.253 µM,1
same,relative viability,[11]; first compound 0.8 µM,1.45
same,relative viability,[11]; first compound 2.53 µM,1.06
same,relative viability,[12]; first compound 0.08 µM,1.01
same,relative viability,[12]; first compound 0.253 µM,1
same,relative viability,[12]; first compound 0.8 µM,1.02
same,relative viability,[12]; first compound 2.53 µM,1.02
same,relative viability,[13]; first compound 0.08 µM,1.01
same,relative viability,[13]; first compound 0.253 µM,0.99
same,relative viability,[13]; first compound 0.8 µM,1
same,relative viability,[13]; first compound 2.53 µM,1.02
same,relative viability,[14]; first compound 0.08 µM,0.906
same,relative viability,[14]; first compound 0.253 µM,0.881
same,relative viability,[14]; first compound 0.8 µM,0.822
same,relative viability,[14]; first compound 2.53 µM,0.897
same,relative viability,[15]; first compound 0.08 µM,0.938
same,relative viability,[15]; first compound 0.253 µM,1
same,relative viability,[15]; first compound 0.8 µM,0.943
same,relative viability,[15]; first compound 2.53 µM,1.06
same,relative viability,[16]; first compound 0.08 µM,1.13
same,relative viability,[16]; first compound 0.253 µM,0.93
same,relative viability,[16]; first compound 0.8 µM,0.996
same,relative viability,[16]; first compound 2.53 µM,1.37
same,relative viability,[17]; first compound 0.08 µM,0.771
same,relative viability,[17]; first compound 0.253 µM,0.726
same,relative viability,[17]; first compound 0.8 µM,0.795
same,relative viability,[17]; first compound 2.53 µM,0.728
same,relative viability,[18]; first compound 0.08 µM,0.458
same,relative viability,[18]; first compound 0.253 µM,0.603
same,relative viability,[18]; first compound 0.8 µM,0.609
same,relative viability,[18]; first compound 2.53 µM,0.458
same,relative viability,[19]; first compound 0.08 µM,1.13
same,relative viability,[19]; first compound 0.253 µM,1.05
same,relative viability,[19]; first compound 0.8 µM,1.05
same,relative viability,[19]; first compound 2.53 µM,1.02
